Test results as given in patent US20060020029A1, “Pharmaceutical compositions from ethnobotanicals” (priority 2004, published 2006).
≈ marks a conversion by molar mass, not a printed value. Where “and” joins values, the source holds several entries; their conditions need not be identical. Identical values can stand only once.

Tests used:
RSV-Long = assay: Time of addition, CPE assay; assay type: cell-based, respiratory syncytial virus; conditions: for EC50, time of addition: Hep-2; for EC50: estimated FW-516
Description: Determine the Time of Addition for EB Fractions. […] This activity is related to the life cycle of the virus and the step in the cycle where the compounds act. In this example, experiments were performed to investigate the effect of the time of addition of EB fractionated products on anti-RSV activity.
Mechanism of action studies were performed as follows. Mechanism of action studies were performed using CJ4-16-4 in a CPE assay with Hep-2 cells.

RSV-A2 = assay: CPE assay, RSV-A2 in Hep-2 cells
Description: (§3) The cell line was propagated in MEM supplemented with 10% heat-inactivated fetal bovine serum (FBS) containing 100 μg/ml of antibiotics (streptomycin/penicillin). […] The overnight medium (MEM containing 10% FBS) was removed, and wells were rinsed twice with 1× phosphate buffer saline (PBS, 200 μl) before adding 10×TCID50 of RSV suspension in fresh medium (MEM plus 2% FBS) to each well, except for cell only wells. […] CellTiter 96 Aqueous Non-Radioactive Cell Proliferation Assay (Promega) was used to monitor the antiviral activity following the manufacturer's instruction. After incubation, the cells were rinsed twice with 200 μl of 1×PBS prior to the addition of 100 μl of fresh medium (MEM plus 10% FBS). […] The extent of cell viability was measured at 490 nm using an ELISA reader, and the absorbance was used to calculate percent inhibition. Antiviral activity of each EB fraction or ribavirin is expressed as IC50, which represents the concentration of the test substance required to reduce the virus infection (as measured by the destruction of the host cells) by 50%.
(§4) Hep-2 cells were used in the CPE assay to determine anti-RSV properties.

[1] = test system: Influenza A-Shangdong/09/93 (H3N2); assay: CPE assay, influenza A specificity; assay type: cell-based, influenza type A
Description: (§1) To determine whether the fractions are specific RSV inhibitors rather than general antiviral agents, the inventors tested them against influenza type A/Shangdong/09/93 (H3N2), herpes simplex type 1 (MacItyre), and herpes simplex type 2 (MS) using the CPE assay system.
(§2) CJ4-16-4 was tested using influenza type A, herpes simplex virus type 1, and herpes simplex virus type 2 using the CPE assay with MDCK or Vero cells.

RSV-A6 57754 = assay: CPE assay, RSV-A6 57754 in Hep-2 cells
Description: as §3, §4

RSV A2 = assay: Cotton rat RSV infection model, pulmonary titer; conditions: for RSV Pulmonary Titer Mean ± SD / RSV Pulmonary Titer in individual CR (A-D): harvest day 4
Description: All groups consisted of four randomly selected cotton rats. All test materials were administered intraperitoneally with once daily dosing. The placebo group was administered distilled water at volumes and schedules identical to the other groups receiving investigational test articles. In general, timing of administration of ribavarin to the ribavarin-treated group paralleled that of the other treatment groups except that initiation of dosing was on Day 1 for Experiments 1 and 2 and Day 0 for Experiment 3. The dose of ribavarin was 90 mg/kg/day in Experiments 1 and 3 and 180 mg/kg/day in Experiment 2. All animals were inoculated intranasally with approximately 100 median cotton rat infectious doses (CRID50) of RSV A2 on Day 0. Experiments were terminated on either Day 3 or 4 post-infection. […] On the day that the experiment was terminated, all CRs were sacrificed using CO2 to asphyxiate the animals. The lungs from the animals were subsequently removed. The lungs of sacrificed animals were removed, rinsed in sterile phosphate-buffered saline (PBS; pH 7.2) and weighed. Each set of lungs was then transpleurally lavaged using 3 ml of 2% FCS-MEM media. The resulting lung fractions were kept on ice until they were assayed for RSV. The lung fractions of animals from each group were tested for the levels of RSV present.

MDCK cells = assay: Cytotoxicity in MDCK cells
[2] = Stability in increasing concentrations of water (HPLC); assay type: physicochemical; conditions: for Area % of 3,5-DCQA (HPLC): Table 24 (in H2O)
Description: The rate of degradation of 3,5-DCQA was again tested in increasing concentrations of water. 5.4 mg 3,5-DCQA was dissolved in 0.266ml DMSO (conc.=20.3 mg/ml), and then diluted with water to ½, ¼ and ⅛ dilution, respectively. All samples were subjected on HPLC in 0 Day, 1 Day, 2 Day and 4 Day, and Area % of 3,5-DCQA was calculated.

RSV (Long strain) = assay: CPE assay, RSV-Long in Hep-2 cells; assay type: cell-based, respiratory syncytial virus; conditions: Hep-2 cells, CPE assay; for EC50: μM using the estimated FW-516
[3] = Stability in methanol (HPLC); assay type: physicochemical
Description: The stability of 3,5 Dicaffeoyl-Quinic Acid (3,5-DCQA) was first evaluated in methanol. 3.8 mg 3,5-DCQA was dissolved in 0.2375 ml MeOH (conc.=16 mg/ml), and then diluted as ½, ¼ and ⅛ dilution, respectively. All samples were subjected to HPLC in 0 Day, 1 Day, 2 Day and 4 Day, and the Area% of 3,5-DCQA was calculated.

RSV B = assay: CPE assay, RSV-B in Hep-2 cells; assay type: cell-based, respiratory syncytial virus
[4] = test system: Herpes simplex virus type 2 (MS-strain); assay: CPE assay, HSV-2 specificity; assay type: cell-based
Description: as §1, §2

[5] = test system: RSV-Long (Cotton Rat adapted strain); assay: CPE assay, RSV-Long cotton rat adapted strain; assay type: cell-based, respiratory syncytial virus
[6] = CPE assay with MDCK or Vero cells
[7] = 12.5 mg/kg/day B.I.D i.p. D0-D3, 50% DMSO
[8] = 25 mg/kg/day B.I.D i.p. D0-D3, 50% DMSO

O=C(/C=C/c1ccc(O)c(O)c1)OC1CC(O)(C(=O)O)CC(OC(=O)/C=C/c2ccc(O)c(O)c2)C1O (centres unmarked) [CJ4-16-4, 3,5-di-O-caffeoylquinic acid]
EC50, time of addition (RSV-Long; 0-Hr-Post-infection): 0.051 µg/mL
EC50 (RSV-Long; 0-Hr-Post-infection): 0.099 µM
EC50, time of addition (RSV-Long; 2-Hr-Post-infection): 0.036 µg/mL
EC50 (RSV-Long; 2-Hr-Post-infection): 0.07 µM
EC50, time of addition (RSV-Long; 4-Hr-Post-infection): 0.039 µg/mL
EC50 (RSV-Long; 4-Hr-Post-infection): 0.076 µM
EC50, time of addition (RSV-Long; 6-Hr-Post-infection): 0.043 µg/mL
EC50 (RSV-Long; 6-Hr-Post-infection): 0.083 µM
EC50, time of addition (RSV-Long; 8-Hr-Post-infection): 0.039 µg/mL
EC50 (RSV-Long; 8-Hr-Post-infection): 0.076 µM
EC50, time of addition (RSV-Long; 24-Hr-Post-infection): 0.069 µg/mL
EC50 (RSV-Long; 24-Hr-Post-infection): 0.13 µM
EC50, RSV-A2 (RSV-A2; Hep-2 cells, CPE assay): 0.084 µg/mL (≈ 0.163 µM)
EC50 (RSV-A2; read-out: EC50, RSV-A2, μM using the estimated FW-516): 0.163 µM
activity against Influenza A (in words) [1]: inactive
EC50, Influenza A-Shangdong/09/93 (H3N2) [1, 6]: > 50 µg/mL
EC50 ([1]; μM using the estimated FW-516): > 100 µM
EC50, RSV-A6 57754 (RSV-A6 57754; Hep-2 cells, CPE assay): 0.08 µg/mL (≈ 0.155 µM)
EC50 (RSV-A6 57754; read-out: EC50, RSV-A6 57754, μM using the estimated FW-516): 0.16 µM
inhibition of RSV infection in cotton rat model (RSV A2; 12.5 mg/kg/day): over one log
RSV Pulmonary Titer Mean ± SD (RSV A2; [7]): 3.3 ± 0.0 log10/g lung
RSV Pulmonary Titer in individual CR (A-D) (RSV A2; [7]): 3.3 log10/g lung
Reduction (RSV A2; 12.5 mg/kg/day B.I.D i.p. D0-D3, vs placebo): 1.1 Log 10
RSV Pulmonary Titer Mean ± SD (RSV A2; [8]): 3.2 ± 0.3 log10/g lung
RSV Pulmonary Titer in individual CR (A-D) (RSV A2; [8]): 2.8 log10/g lung and 3.3 log10/g lung (3×)
Reduction (RSV A2; 25 mg/kg/day B.I.D i.p. D0-D3, vs placebo): 1.2 Log 10
CC50, MDCK (MDCK cells; isolated compounds): > 200 µg/mL
CC50 (MDCK cells; read-out: CC50, MDCK, μM using the estimated FW-516): > 400 µM
Area % of 3,5-DCQA (HPLC) ([2]; Stock (20.3 mg/ml), 0 Day): 97.05 Area %
Area % of 3,5-DCQA (HPLC) ([2]; Stock (20.3 mg/ml), 1 Day): 96.09 Area %
Area % of 3,5-DCQA (HPLC) ([2]; Stock (20.3 mg/ml), 2 Day): 93.94 Area %
Area % of 3,5-DCQA (HPLC) ([2]; Stock (20.3 mg/ml), 4 Day): 91.90 Area %
Area % of 3,5-DCQA (HPLC) ([2]; ¼ dilution with water, 1 Day): 92.79 Area %
Area % of 3,5-DCQA (HPLC) ([2]; ¼ dilution with water, 2 Day): 91.06 Area %
Area % of 3,5-DCQA (HPLC) ([2]; ¼ dilution with water, 4 Day): 88.14 Area %
Area % of 3,5-DCQA (HPLC) ([2]; ½ dilution with water, 1 Day): 94.62 Area %
Area % of 3,5-DCQA (HPLC) ([2]; ½ dilution with water, 2 Day): 92.71 Area %
Area % of 3,5-DCQA (HPLC) ([2]; ½ dilution with water, 4 Day): 90.20 Area %
Area % of 3,5-DCQA (HPLC) ([2]; ⅛ dilution with water, 0 Day): 96.91 Area %
Area % of 3,5-DCQA (HPLC) ([2]; ⅛ dilution with water, 1 Day): 92.60 Area %
Area % of 3,5-DCQA (HPLC) ([2]; ⅛ dilution with water, 2 Day): 89.02 Area %
Area % of 3,5-DCQA (HPLC) ([2]; ⅛ dilution with water, 4 Day): 85.55 Area %
3,5-DCQA changed into 4,5-DCQA ([2]; fourth day in solution): over 11%
CC50 (Hep-2 cells): > 400 µM
CC50, Hep 2 (Hep-2 cells): > 200 µg/mL
cytotoxicity in Hep-2 cells (in words) (Hep-2 cells): no significant cytotoxicity
CC50 (Vero cells): > 400 µM
CC50, Vero (Vero cells): > 200 µg/mL
EC50, RSV-Long (RSV (Long strain)): 0.035 µg/mL (≈ 0.0678 µM)
EC50 (RSV (Long strain)): 0.068 µM
EC50 (RSV (Long strain); listed as 3,5 dicaffeoyl-quinic acid): ~0.068 µM
EC50 (RSV (Long strain); listed as IV): 0.068 µM
Area % of 3,5-DCQA (HPLC) ([3]; Stock (16 mg/ml), 0 Day): 97.40 Area%
Area % of 3,5-DCQA (HPLC) ([3]; Stock (16 mg/ml), 1 Day): 97.16 Area%
Area % of 3,5-DCQA (HPLC) ([3]; Stock (16 mg/ml), 2 Day): 96.42 Area%
Area % of 3,5-DCQA (HPLC) ([3]; Stock (16 mg/ml), 4 Day): 95.39 Area%
Area % of 3,5-DCQA (HPLC) ([3]; ¼ dilution, 2 Day): 96.65 Area%
Area % of 3,5-DCQA (HPLC) ([3]; ¼ dilution, 4 Day): 95.88 Area%
Area % of 3,5-DCQA (HPLC) ([3]; ½ dilution, 2 Day): 97.03 Area%
Area % of 3,5-DCQA (HPLC) ([3]; ½ dilution, 4 Day): 95.66 Area%
Area % of 3,5-DCQA (HPLC) ([3]; ⅛ dilution, 0 Day): 97.32 Area%
Area % of 3,5-DCQA (HPLC) ([3]; ⅛ dilution, 1 Day): 96.84 Area%
Area % of 3,5-DCQA (HPLC) ([3]; ⅛ dilution, 2 Day): 94.44 Area%
Area % of 3,5-DCQA (HPLC) ([3]; ⅛ dilution, 4 Day): 94.27 Area%
EC50, RSV-B (Washington) (RSV B; Hep-2 cells, CPE assay): 0.086 µg/mL (≈ 0.167 µM)
EC50 (RSV B; μM using the estimated FW-516, read-out: EC50, RSV-B (Washington)): 0.167 µM
activity against HSV-2 (in words) [4]: inactive
EC50, Herpes simplex virus type 2 (MS-strain) [4, 6]: > 50 µg/mL
EC50 ([4]; μM using the estimated FW-516): > 100 µM
EC50, RSV-Long (Cotton Rat adapted strain) ([5]; Hep-2 cells, CPE assay): 1.4 µg/mL (≈ 2.71 µM)
EC50 ([5]; μM using the estimated FW-516): 2.7 µM
